Our source for the MIC values is patent US4831026A, “2-oxa-isocephem compounds, compositions containing same and processes of using” (Otsuka Pharmaceutical Co., Ltd., priority 1985, dated 1989).

The subject of assay [1] is E. coli No. 29. The assay can be described thus: Antimicrobial activity test: MIC by the agar plate dilution method, E. coli No. 29. In kind it is cell-based. The essentials:
(§1)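 Agar plate dilution MIC against each listed strain; inocula adjusted to 1×10^6 cells/ml (O.D. 600 mμ: 0.07-0.16).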

Assay [2] concerns E. coli NIHJ. The assay can be described thus: Antimicrobial activity test: MIC by the agar plate dilution method, E. coli NIHJ. The following applies: inoculum 1×10^6 cells/ml. Type of assay: cell-based. The method, then:
In order to investigate the in vitro activity of the under-mentioned compounds against various bacteria, the minimal inhibitory concentration (MIC) values were determined by the agar plate dilution method [see Chemotherapy, 22, 1126-1128 (1974)].
Each test inoculum was adjusted to 1×10^6 cells/ml (O.D., 600 mμ: 0.07-0.16).

Assay [3] has as its system P. mirabilis 1287. The assay can be described thus: Antimicrobial activity test: MIC by the agar plate dilution method, P. mirabilis 1287. Type of assay: cell-based. The essentials:
as §1

Assay [4] relates to P. aeruginosa NCTC-10490. The assay can be described thus: Antimicrobial activity test: MIC by the agar plate dilution method, P. aeruginosa NCTC-10490. Type of assay: cell-based. To be noted: inoculum 1×10^6 cells/ml. In outline: as §1
Assay [5] relates to K. pneumoniae NCTC-9632. The assay can be described thus: Antimicrobial activity test: MIC by the agar plate dilution method, K. pneumoniae NCTC-9632. The following applies: inoculum 1×10^6 cells/ml. In kind it is cell-based. In outline: as §1
In assay [6] the test system is M. morganii ATCC-25830. Put plainly: Antimicrobial activity test: MIC by the agar plate dilution method, M. morganii ATCC-25830. Type of assay: cell-based. The following applies: inoculum 1×10^6 cells/ml. In outline: as §1
In assay [7] the test system is S. aureus FDA-209-p. The assay can be described thus: Antimicrobial activity test: MIC by the agar plate dilution method, S. aureus FDA-209-p. The following applies: inoculum 1×10^6 cells/ml. Type of assay: cell-based, Staphylococcus aureus. The essentials:
as §1

Assay [8] concerns S. marcescens IFO-12648. The assay can be described thus: Antimicrobial activity test: MIC by the agar plate dilution method, S. marcescens IFO-12648. In kind it is cell-based. The essentials: as §1
The mark [9] stands for this setting: E. coli No. 29, inoculum 1×10^6 cells/ml.
Setting [10] is: P. mirabilis 1287, inoculum 1×10^6 cells/ml.
[11] abbreviates: S. marcescens IFO-12648, inoculum 1×10^6 cells/ml.

Where two headings read alike, the source gives them in different places.

Turning to “7-[2-(2-Trifluoroacetamidothiazol-4-yl)-2methoxyiminoacetamido]-3-[(carbamoyloxy)methyl]-Δ^3 -O-2-isocephem-4-carboxylic acid (syn-isomer) [No. 5]”, the minimal inhibitory concentration (MIC) in assay [1] came out at 0.78 µg/mL; in assay [2], 0.78 µg/mL; in assay [3], 0.39 µg/mL; in assay [4], 100 µg/mL; in assay [5], 0.2 µg/mL; in assay [6] it was 0.2 µg/mL. Further, the minimal inhibitory concentration (MIC) in assay [7] was greater than 100 µg/mL; in assay [8], 0.39 µg/mL.
For “Benzhydryl 7-[2-(2-aminothiazol-4-yl)-2-cyclopropylmethyloxyiminoacetamido]-3-[(1,2,3-thiadiazol-5-yl)thiomethyl]-Δ^3 -O-2-isocephem-4-carboxylate (syn-isomer) [Example 56]”, the MIC in assay [1] (setting [9]) amounted to 0.1 µg/mL; in assay [2] it was 0.2 µg/mL; in assay [3] (setting [10]) it was 0.2 µg/mL; in assay [4], 0.39 µg/mL; in assay [5] it was 0.39 µg/mL; in assay [6], 0.05 µg/mL. Also, the MIC is 0.05 µg/mL in assay [7] and 0.78 µg/mL in assay [8].
Consider “7-[2-(2-Aminothiazol-4-yl)-2-cyanomethyloxyiminoacetamido]-3-[(1,2,3-thiadiazol-5-yl)thiomethyl]-Δ^3 -O-2-isocephem-4-carboxylic acid trifluoroacetate (syn-isomer) [Example 55]”, for which the MIC was no more than 0.025 µg/mL in assay [1] (setting [9]); no more than 0.025 µg/mL in assay [2]; no more than 0.025 µg/mL in assay [3] (setting [10]); 1.56 µg/mL in assay [4]; no more than 0.025 µg/mL in assay [5]; no more than 0.025 µg/mL in assay [6]. The MIC in assay [7] stood at 0.2 µg/mL; in assay [8] (setting [11]) it was 0.1 µg/mL.
Consider “7-[2-(2-Aminothiazol-4-yl)-2-methylthiomethoxyiminoacetamido]-3-[(1,3,4-thiadiazol-2-yl)thiomethyl]-Δ^3 -O-2-isocephem-4-carboxylic acid (syn-isomer) [No. 12]”, for which the MIC in assay [1] (setting [9]) is no more than 0.025 µg/mL; in assay [2], no more than 0.025 µg/mL; in assay [3] (setting [10]), no more than 0.025 µg/mL; in assay [4] it was 3.13 µg/mL; in assay [5] it was 0.05 µg/mL; in assay [6] it was no more than 0.025 µg/mL. Further, the MIC in assay [7] is 0.2 µg/mL; in assay [8] (setting [11]), 0.1 µg/mL.
“Benzyl 7-[2-(2-chloroacetamidothiazol-4-yl)-2-ethoxyiminoacetamido]-3-[(1,3,4-thiadiazol-2-yl)thiomethyl]-Δ^3 -O-2-isocephem-4-carboxylate (syn-isomer) [Example 27]”: the MIC in assay [1] (setting [9]) came to 0.1 µg/mL; in assay [2] it was 0.10 µg/mL; in assay [3] (setting [10]), 0.1 µg/mL; in assay [4], 0.2 µg/mL; in assay [5] it was 0.2 µg/mL; in assay [6] it was 0.1 µg/mL. In addition, the MIC was determined as 0.1 µg/mL in assay [7] and 0.2 µg/mL in assay [8] (setting [11]).
For “7-[2-(2-Aminothiazol-4-yl)-2-methoxyiminoacetamido]-3-[(carbamoyloxy)methyl]-Δ^3 -O-2-isocephem-4-carboxylic acid (syn-isomer) [No. 1]”, the MIC in assay [1] was 0.39 µg/mL; in assay [2], 0.2 µg/mL; in assay [3] (setting [10]) it was 0.1 µg/mL; in assay [4], 1.56 µg/mL; in assay [5], 0.39 µg/mL; in assay [6] it was 0.1 µg/mL. Also, the MIC in assay [7] and in assay [8] was 0.78 µg/mL throughout.
Turning to “7-[2-(2-Aminothiazol-4-yl)-2-benzyloxyiminoacetamido]-3-[(1,3,4-thiadiazol-2-yl)thiomethyl]-Δ^3 -O-2-isocephem-4-carboxylic acid trifluoroacetate (syn-isomer) [No. 13]”, the MIC in assay [1] (setting [9]) is no more than 0.025 µg/mL; in assay [2] it was no more than 0.025 µg/mL; in assay [3] (setting [10]), no more than 0.025 µg/mL; in assay [4] it was 1.56 µg/mL; in assay [5] it was no more than 0.025 µg/mL; in assay [6], no more than 0.025 µg/mL. The MIC in assay [7] and in assay [8] (setting [11]) was 0.1 µg/mL throughout.
Regarding “Benzhydryl 7-[2-(2-formamidothiazol-4-yl)-2-ethoxyiminoacetamido]-3-[(1,3,4-thiadiazol-2-yl)thiomethyl]-Δ^3 -O-2-isocephem-4-carboxylate (syn-isomer) [Example 30]”, the MIC turned out to be 0.1 µg/mL in assay [1] (setting [9]); 0.05 µg/mL in assay [2]; 0.2 µg/mL in assay [3] (setting [10]); 25 µg/mL in assay [4]; 0.2 µg/mL in assay [5]; 0.39 µg/mL in assay [6]. In addition, the values for the MIC in assay [7] and in assay [8] were 0.1 µg/mL and 0.39 µg/mL, respectively.
For “7-[2-(2-Aminothiazol-4-yl)-2-cyclopropvlmethyloxyiminoacetamido]-3-[(1,2,3- thiadiazol-5-yl)thiomethyl]-Δ^3 -O-2-isocephem-4-carboxylic acid (syn-isomer) [Example 57]”, the MIC in assay [1] (setting [9]) turned out to be 0.1 µg/mL; in assay [2], 0.2 µg/mL; in assay [3] (setting [10]) it was 0.1 µg/mL; in assay [4], 0.78 µg/mL; in assay [5], 0.39 µg/mL; in assay [6] it was 0.05 µg/mL. Also, the MIC in assay [7] worked out at 0.1 µg/mL; in assay [8], 0.78 µg/mL.
For the substance “7-[2-(2-Aminothiazol-4-yl)-2-allyloxyiminoacetamido]-3-[(1,3,4-thiadiazol- 2-yl)thiomethyl]- Δ^3 -O-2-isocephem-4-carboxylic acid (syn-isomer) [No. 3]”, the MIC is no more than 0.025 µg/mL in assay [1] (setting [9]); no more than 0.025 µg/mL in assay [2]; no more than 0.025 µg/mL in assay [3] (setting [10]); 12.5 µg/mL in assay [4]; 0.1 µg/mL in assay [5]; no more than 0.025 µg/mL in assay [6]. The MIC in assay [7] was 0.78 µg/mL; in assay [8] (setting [11]), 0.2 µg/mL.
Turning to “(6S,7S)-7-[2-(2-Aminothiazol-4-yl)-2cyanomethoxyiminoacetamido]-3-[(1,3,4- thiadiazol-2-yl)thiomethyl]-Δ^3 -O-2-isocephem-4carboxylic acid trifluoroacetate (syn-isomer) [No. 16]”, the MIC in assay [1] (setting [9]) was determined as 0.2 µg/mL; in assay [2], 0.39 µg/mL; in assay [3] (setting [10]) it was 0.1 µg/mL; in assay [4], 0.39 µg/mL; in assay [5] it was 0.39 µg/mL; in assay [6], 0.05 µg/mL. Also, the MIC worked out at 0.39 µg/mL in assay [7] and 0.78 µg/mL in assay [8].
For the substance “7-[2-(2-Formamidothiazol-4-yl)-2-methylthiomethoxyiminoacetamido]-3-[(1,3,4-thiadiazol-2-yl)thiomethyl]-Δ^3 -O-2-isocephem-4-carboxylic acid (syn-isomer) [Example 45]”, the MIC in assay [1] is 0.39 µg/mL; in assay [2], 0.39 µg/mL; in assay [3] (setting [10]) it was 0.2 µg/mL; in assay [4], 6.25 µg/mL; in assay [5], 0.39 µg/mL; in assay [6], 0.39 µg/mL. In addition, the minimal inhibitory concentration (MIC) was 0.39 µg/mL in assay [7] and 0.78 µg/mL in assay [8].
Regarding “7-[2-(2-Aminothiazol-4-yl)-2-methoxyiminoacetamido]-3-[(1,3,4-thiadiazol-2-yl)thiomethyl]- Δ^33 -O-2-isocephem-4-carboxylic acid (syn-isomer) [No. 2]”, the MIC in assay [1] worked out at 0.78 µg/mL; in assay [2], 0.39 µg/mL; in assay [3] (setting [10]) it was 0.1 µg/mL; in assay [4], 3.13 µg/mL; in assay [5] it was 0.78 µg/mL; in assay [6] it was 0.2 µg/mL. Besides, the MIC came out at 1.56 µg/mL in assay [7] and 0.78 µg/mL in assay [8].
Consider “7-[2-(2-Aminothiazol-4-yl)-2-ethoxyiminoacetamido]-3-[(1,3,4-thiadiazol-2-yl)thiomethyl]-Δ^3 -O-2-isocephem-4-carboxylic acid (syn-isomer) [Example 29]”, for which the MIC is no more than 0.025 µg/mL in assay [1] (setting [9]); no more than 0.025 µg/mL in assay [2]; no more than 0.025 µg/mL in assay [3] (setting [10]); 6.25 µg/mL in assay [4]; 0.05 µg/mL in assay [5]; no more than 0.025 µg/mL in assay [6]. Moreover, the MIC in assay [7] amounted to 0.05 µg/mL; in assay [8] (setting [11]), 0.2 µg/mL.
As to “7-[2-(2-Aminothiazol-4-yl)-2-cyanomethyloxyiminoacetamido]-3-[(1,3,4-thiadiazol-2-yl)thiomethyl]-Δ^3 -O-2-isocephem-4-carboxylic acid trifluoroacetate (syn-isomer) [No. 11]”, the MIC in assay [1] (setting [9]) was determined as 0.2 µg/mL; in assay [2] it was 0.39 µg/mL; in assay [3] (setting [10]), 0.05 µg/mL; in assay [4], 1.56 µg/mL; in assay [5], 0.39 µg/mL; in assay [6], 0.1 µg/mL. The figures for the MIC in assay [7] and in assay [8] (setting [11]) were 0.78 µg/mL and 1.56 µg/mL, respectively.
